26 compounds from patent US20100029620A1, “SUBSTITUTED TRIAZOLINE, TETRAZOLONE AND IMIDAZOLONE DERIVATIVES FOR USE AS A MEDICINE” (JANSSEN PHARMACEUTICA N.V., priority 2004, published 2010) can be followed below.

The target in assay [1] is T1, human adrenergic-α2C receptor (Homo sapiens, UniProt P18825).
T1 construct: expressed in transfected cells; membrane preparation
T1 sequence (P18825 1-462): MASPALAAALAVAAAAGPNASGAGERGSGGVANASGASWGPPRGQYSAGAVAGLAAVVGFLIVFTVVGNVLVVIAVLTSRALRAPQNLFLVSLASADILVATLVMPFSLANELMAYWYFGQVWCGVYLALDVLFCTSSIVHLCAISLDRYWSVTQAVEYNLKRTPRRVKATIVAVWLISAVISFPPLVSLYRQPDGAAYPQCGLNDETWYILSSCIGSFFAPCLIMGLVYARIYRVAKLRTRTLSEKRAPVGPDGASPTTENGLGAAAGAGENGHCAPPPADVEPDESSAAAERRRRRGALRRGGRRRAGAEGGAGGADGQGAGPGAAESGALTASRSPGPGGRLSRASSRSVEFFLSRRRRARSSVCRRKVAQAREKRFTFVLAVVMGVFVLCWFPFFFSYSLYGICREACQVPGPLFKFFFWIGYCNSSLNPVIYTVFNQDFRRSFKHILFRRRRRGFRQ
The assay can be described thus: Radioligand binding experiment for α2C-adrenoceptor ([3H]-raulwolscine competition, CHO cell membranes). The settings on record: [3H]raulwolscine 1 nM, membranes of CHO cells transfected with human α2C receptor; read-out: pIC50 α2C (converted). Here is the method:
(§1) The interaction of the compounds of Formula (I) with α2C-adrenoceptor receptors was assessed in in vitro radioligand binding experiments. In general, a low concentration of a radioligand with a high binding affinity for a particular receptor or transporter is incubated with a sample of a tissue preparation enriched in a particular receptor or transporter or with a preparation of cells expressing cloned human receptors in a buffered medium. During the incubation, the radioligand binds to the receptor or transporter. When equilibrium of binding is reached, the receptor bound radioactivity is separated from the non-bound radioactivity, and the receptor- or transporter-bound activity is counted. The interaction of the test compounds with the receptor is assessed in competition binding experiments. Various concentrations of the test compound are added to the incubation mixture containing the receptor- or transporter preparation and the radioligand. The test compound in proportion to its binding affinity and its concentration inhibits binding of the radioligand. The radioligand used for […] receptor binding was [^3H]-raulwolscine.
(§2) CHO cells, stabile transfected with human adrenergic-α2A-, -α2B or α2C receptor cDNA, were cultured in Dulbecco's Modified Eagle's Medium (DMEM)/Nutrient mixture Ham's F12 (ratio 1:1)(Gibco, Gent-Belgium) supplemented with 10% heat inactivated fetal calf serum (Life Technologies, Merelbeke-Belgium) and antibiotics (100 IU/ml penicillin G, 100 μg/ml streptomycin sulphate, 110 μg/ml pyruvic acid and 100 μg/ml L-glutamine). One day before collection, cells were induced with 5 mM sodiumbutyrate. Upon 80-90% of confluence, cells were scraped in phosphate buffered saline without Ca^2+ and Mg^2+ and collected by centrifugation at 1500×g for 10 min. The cells were homogenised in Tris-HCl 50 mM using an Ultraturrax homogenizer and centrifuged for 10 min at 23,500×g. The pellet was washed once by resuspension and rehomogenization and the final pellet was resuspended in Tris-HCl, divided in 1 ml aliquots and stored at −70° C.
(§3) Membranes were thawed and re-homogenized in incubation buffer (glycylglycine 25 mM, pH 8.0). In a total volume of 500 μl, 2-10 μg protein was incubated with [^3H]raulwolscine (NET-722) (New England Nuclear, USA) (1 nM final concentration) with or without competitor for 60 min at 25° C. followed by rapid filtration over GF/B filter using a Filtermate196 harvester (Packard, Meriden, Conn.). Filters were rinsed extensively with ice-cold rinsing buffer (Tris-HCl 50 mM pH 7.4). Filter-bound radioactivity was determined by scintillation counting in a Topcount (Packard, Meriden, CT) and results were expressed as counts per minute (cpm). Non-specific binding was determined in the presence of 1 μM oxymetazoline for hα2A- and hα2B receptors and 1 μM spiroxatrine for hα2C receptors.
(§4) Data from assays in the presence of compound were calculated as a percentage of total binding measured in the absence of test compound. Inhibition curves, plotting percent of total binding versus the log value of the concentration of the test compound, were automatically generated, and sigmoidal inhibition curves were fitted using non-linear regression. The pIC50 values of test compounds were derived from individual curves.

In assay [2] the target is T2, human adrenergic-α2A receptor (Homo sapiens, UniProt P08913).
T2 construct: expressed in transfected cells; membrane preparation
T2 sequence (P08913 1-465): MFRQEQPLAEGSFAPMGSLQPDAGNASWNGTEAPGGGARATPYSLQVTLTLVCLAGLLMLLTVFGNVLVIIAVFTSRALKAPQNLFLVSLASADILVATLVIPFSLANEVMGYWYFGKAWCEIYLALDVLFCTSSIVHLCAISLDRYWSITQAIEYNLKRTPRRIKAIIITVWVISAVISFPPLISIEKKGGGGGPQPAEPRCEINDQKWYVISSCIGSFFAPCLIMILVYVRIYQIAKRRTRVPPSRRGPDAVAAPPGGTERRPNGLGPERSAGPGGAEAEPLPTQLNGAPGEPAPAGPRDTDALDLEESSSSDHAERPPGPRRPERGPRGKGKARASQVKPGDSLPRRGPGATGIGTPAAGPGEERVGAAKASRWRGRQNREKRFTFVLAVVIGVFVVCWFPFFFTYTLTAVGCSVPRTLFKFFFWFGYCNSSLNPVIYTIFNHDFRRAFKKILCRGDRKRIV
Briefly: Radioligand binding experiment for α2A-adrenoceptor ([3H]-raulwolscine competition, CHO cell membranes). The settings on record: [3H]raulwolscine 1 nM, membranes of CHO cells transfected with human α2A receptor; read-out: pIC50 α2A (converted). Here is the method: as §1, §2, §3, §4

In assay [3] the target is T3, human adrenergic-α2B receptor (Homo sapiens, UniProt P18089).
T3 construct: expressed in transfected cells; membrane preparation
T3 sequence (P18089 1-450): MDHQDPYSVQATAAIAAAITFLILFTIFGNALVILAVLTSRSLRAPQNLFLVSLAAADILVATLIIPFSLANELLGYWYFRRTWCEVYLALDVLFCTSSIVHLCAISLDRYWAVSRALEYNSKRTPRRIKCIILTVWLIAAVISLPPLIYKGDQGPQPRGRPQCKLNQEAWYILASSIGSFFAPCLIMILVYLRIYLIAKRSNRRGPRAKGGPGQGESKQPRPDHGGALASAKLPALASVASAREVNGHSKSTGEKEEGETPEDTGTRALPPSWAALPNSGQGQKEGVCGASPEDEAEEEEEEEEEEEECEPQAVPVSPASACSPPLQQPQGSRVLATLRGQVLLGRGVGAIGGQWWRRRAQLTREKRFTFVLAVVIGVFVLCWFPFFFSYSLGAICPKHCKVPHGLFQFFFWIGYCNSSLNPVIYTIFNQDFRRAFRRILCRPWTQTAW
The assay can be described thus: Radioligand binding experiment for α2B-adrenoceptor ([3H]-raulwolscine competition, CHO cell membranes). The settings on record: [3H]raulwolscine 1 nM, membranes of CHO cells transfected with human α2B receptor; read-out: pIC50 α2B (converted). Here is the method: as §1, §2, §3, §4

Take `C/C(=C\c1ccccc1)CN1CCC(Cn2ncn(-c3ccc(NCCN(C)C)cc3)c2=O)CC1` [compound 39]: the IC50 in assay [1] is 10 nM; in assay [2] it was 63.1 nM; in assay [3], 7.94 nM.
Consider `CN(C)CCNc1ccc(-n2cnn(CCC3CCN(CCOc4ccccc4)CC3)c2=O)cc1` [compound 40], for which the IC50 in assay [1] was 0.794 nM; in assay [2], 3.98 nM; in assay [3], 0.631 nM.
With `C/C(=C\c1ccccc1)CN1CCC(CCn2ncn(-c3ccc(NCCN(C)C)cc3)c2=O)CC1` [compound 41], the IC50 was 1.58 nM in assay [1], 6.31 nM in assay [2] and 1.26 nM in assay [3].
Taken in the same sequence, the figures for `CN(CCNc1ccc(-n2cnn(CC3CCN(CCOc4ccccc4)CC3)c2=O)cc1)CC1CCCCC1` [compound 42] were 1 nM, 25.1 nM and 7.94 nM.
As to `CN(CCNc1ccc(-n2cnn(CC3CCN(CCOc4ccccc4)CC3)c2=O)cc1)Cc1ccccc1` [compound 43], the values for the IC50 in assay [1], in assay [2] and in assay [3] were 1.58 nM, 25.1 nM and 6.31 nM, respectively.
For `O=c1n(CCNCCOc2ccccc2)cnn1CCN1CCCCC1` [compound 44], the IC50 in assay [1] is 10 nM; in assay [2] it was 126 nM; in assay [3], 3980 nM.
Regarding `O=c1n(CCNCCOc2ccccc2)cnn1-c1ccc(CN2CCOCC2)cc1` [compound 45], the IC50 in assay [1] is 20 nM; in assay [2] it was 316 nM; in assay [3], 200 nM.
In the case of `CN(Cc1ccccc1)C(=O)Cn1cnn(CC2CCN(CCOc3ccccc3)CC2)c1=O` [compound 46], the IC50 in assay [1] is 6.31 nM; in assay [2], 126 nM; in assay [3], 158 nM.
In the case of `O=C(Cn1cnn(CC2CCN(CCOc3ccccc3)CC2)c1=O)Nc1ccc(F)cc1` [compound 47], the IC50 was 3.98 nM in assay [1], 79.4 nM in assay [2] and 39.8 nM in assay [3].
For the compound `O=c1n(-c2ccc(NCc3ccc(F)cc3)cc2)cnn1CC1CCN(CCOc2ccccc2)CC1` [compound 48], the IC50 in assay [1] is 3.16 nM; in assay [2], 200 nM; in assay [3], 25.1 nM.
Regarding `CN1CCN(CCCNc2ccc(-n3cnn(CC4CCN(CCOc5ccccc5)CC4)c3=O)cc2)CC1` [compound 49], the values for the IC50 in assay [1], in assay [2] and in assay [3] were 3.98 nM, 63.1 nM and 6.31 nM, respectively.
In the case of `O=c1n(-c2ccc(NCCN3CCOCC3)cc2)cnn1CC1CCN(CCOc2ccccc2)CC1` [compound 50], the IC50 is 12.6 nM in assay [1], 251 nM in assay [2] and 15.8 nM in assay [3].
In the case of `CN1CCN(c2ccc(-n3cnn(CC4CCN(CCOc5ccccc5)CC4)c3=O)cc2)CC1` [compound 51], the figures for the IC50 in assay [1], in assay [2] and in assay [3] were 7.94 nM, 158 nM and 7.94 nM, respectively.
As to `CC(C)N1CCN(c2ccc(-n3cnn(CC4CCN(CCOc5ccccc5)CC4)c3=O)cc2)CC1` [compound 53], the results for the IC50 in assay [1], in assay [2] and in assay [3] were 5.01 nM, 100 nM and 3.98 nM, respectively.
In the case of `O=c1n(-c2ccc(N3CCN(Cc4ccccc4)CC3)cc2)cnn1CC1CCN(CCOc2ccccc2)CC1` [compound 54], the values for the IC50 in assay [1], in assay [2] and in assay [3] were 15.8 nM, 158 nM and 31.6 nM, respectively.
Regarding `COc1ccccc1C1CCN(C(C)C(C)n2ncn(-c3ccc(N4CCN(c5ccc(O)cc5)CC4)cc3)c2=O)C1` (stereo not drawn) [compound 55], the IC50 in assay [1] is 15.8 nM; in assay [2], 1260 nM; in assay [3], 50.1 nM.
Regarding `CN1CCCN(c2ccc(-n3cnn(CC4CCN(CCOc5ccccc5)CC4)c3=O)cc2)CC1` [compound 60], the results for the IC50 in assay [1], in assay [2] and in assay [3] were 2 nM, 39.8 nM and 5.01 nM, respectively.
As for `CN1CCCN(Cc2ccc(-n3cnn(CC4CCN(CCOc5ccccc5)CC4)c3=O)cc2)CC1` [compound 61], the values for the IC50 in assay [1], in assay [2] and in assay [3] were 1.26 nM, 63.1 nM and 10 nM, respectively.
Consider `O=c1n(-c2ccc(CN3CCCC3)cc2)cnn1CC1CCN(CCOc2ccccc2)CC1` [compound 62], for which the values for the IC50 in assay [1], in assay [2] and in assay [3] were 0.501 nM, 39.8 nM and 10 nM, respectively.
For the compound `O=c1n(-c2ccc(N3CCCCC3)cc2)cnn1CC1CCN(CCOc2ccccc2)CC1` [compound 63], the figures for the IC50 in assay [1], in assay [2] and in assay [3] were 5.01 nM, 158 nM and 31.6 nM, respectively.
The corresponding values for `O=c1n(-c2ccc(CN3CCCCC3)cc2)cnn1CC1CCN(CCOc2ccccc2)CC1` [compound 64] are 0.631 nM, 50.1 nM and 12.6 nM.
Take `O=c1n(-c2ccc(CN3CCC(O)CC3)cc2)cnn1CC1CCN(CCOc2ccccc2)CC1` [compound 65]: the IC50 in assay [1] was 1.26 nM; in assay [2], 79.4 nM; in assay [3], 20 nM.
For `O=c1n(CC2CCN(CCOc3ccccc3)CC2)cnn1CCN1CCCCC1` [compound 66], the IC50 in assay [1] is 2.51 nM; in assay [2], 39.8 nM; in assay [3], 50.1 nM.
Consider `O=c1n(CC2CCN(CCOc3ccccc3)CC2)cnn1CCN1CCOCC1` [compound 67], for which the figures for the IC50 in assay [1], in assay [2] and in assay [3] were 25.1 nM, 398 nM and 100 nM, respectively.
On to `O=c1n(-c2ccc(CN3CCC(N4CCCC4)CC3)cc2)cnn1CC1CCN(CCOc2ccccc2)CC1` [compound 68], for which the results for the IC50 in assay [1], in assay [2] and in assay [3] were 2.51 nM, 39.8 nM and 7.94 nM, respectively.
Taken in the same sequence, the figures for `O=c1n(CCN2CCOCC2)cnn1CC1CCN(CCOc2ccccc2)CC1` [compound 71] were 20 nM, 251 nM and 251 nM.
